Values quoted from earlier work as cited in patent US20240050486A1, “METHODS OF GENERATING CORTICAL EXCITATORY NEURONS” (Memorial Sloan-Kettering Cancer Center, priority 2021, published 2024).

Tests used:
WNT pathway (Porcupine) = details: at the level of the pathway activator Porcupine; read-out: IC50 WNT pathway inhibition

IC50 (WNT pathway (Porcupine)) [nM]	Compound	degradation of β-catenin (SW480 cells)	protein levels of the axin-GSK3β complex (SW480 cells)
27	Cc1ccc2nc(NC(=O)CSc3nc4c(c(=O)n3-c3ccccc3)SCC4)sc2c1 [IWP-2, N-(6-methyl-1,3-benzothiazol-2-yl)-2-[(4-oxo-3-phenyl-6,7-dihydrothieno[3,2-d]pyrimidin-2-yl)thio]acetamide]	–	–
–	Oc1nc(-c2ccc(C(F)(F)F)cc2)nc2c1CSCC2 [XAV939]	promotes the degradation of β-catenin	increases the protein levels of the axin-GSK3β complex
